# Test results published in Sander's compilation of Henry's law constants.
# Test: Henry solubility constant Hcp at 298.15 K (mol/(m3 Pa))
# [1] = reference: Brockbank et al. (2013)
# [2] = reference: Amoore and Buttery (1978)
# [3] = reference: Dohányosová et al. (2004)
compound,measurement,setting,value
C1=CCCC1 [cyclopentene],Henry solubility constant Hcp,reference: Bakierowska and Trzeszczyński (2003),0.00023
O=C(O)C(Cl)(Cl)Cl [trichloroethanoic acid],Henry solubility constant Hcp,reference: Bowden et al. (1998b),730
"CCCCOCCOCCO [3,6-dioxa-1-decanol]",Henry solubility constant Hcp,reference: Kim et al. (2000),1400
O[Si](O)(O)O [silicic acid],Henry solubility constant Hcp,reference: Plyasunov (2012),2.3e+10
CCCc1ccccc1 [propylbenzene],Henry solubility constant Hcp,reference: Perlinger et al. (1993),0.00086
CCN(CC)C(=O)SCc1ccc(Cl)cc1 [S-(4-chlorobenzyl) diethylthiocarbamate],Henry solubility constant Hcp,reference: Kawamoto and Urano (1989),4.9
CCCC [butane],Henry solubility constant Hcp,reference: Ben-Naim and Battino (1985),1.2e-05
same,Henry solubility constant Hcp,reference: Carroll et al. (1997),1.3e-05
same,Henry solubility constant Hcp,reference: McAuliffe (1963),1.1e-05
same,Henry solubility constant Hcp,reference: Morrison and Billett (1952),1.1e-05
same,Henry solubility constant Hcp,reference: Wetlaufer et al. (1964),1.3e-05
"Cc1ccc(Cl)cc1Cl [2,4-dichloro-1-methylbenzene]",Henry solubility constant Hcp,[1],0.0027
C=C(C)[C@@H]1CC=C(C)C(=O)C1 [2-methyl-5-(1-methylethenyl)-2-cyclohexen-1-one],Henry solubility constant Hcp,[2],0.49
"CC(C)CCC(C)C [2,5-dimethylhexane]",Henry solubility constant Hcp,[3],2.4e-06
FC(F)=C(F)C(F)(F)F [hexafluoropropene],Henry solubility constant Hcp,reference: Maaßen (1995),6.8e-06
"Cc1cncc(C)n1 [2,6-dimethylpyrazine]",Henry solubility constant Hcp,reference: Chaintreau et al. (1995),0.98
[CH3][Sn]([CH3])([CH3])[CH3] [tetramethylstannane],Henry solubility constant Hcp,reference: Abraham and Nasehzadeh (1981),9.4e-06
O=C(O)C(Cl)Cl [dichloroethanoic acid],Henry solubility constant Hcp,reference: Bowden et al. (1998a),1200
C1=C\CCCCCC/1 [cyclooctene],Henry solubility constant Hcp,[3],0.00021
"Clc1ccc(-c2cc(Cl)c(Cl)cc2Cl)c(Cl)c1 [2,2',4,4',5-pentachlorobiphenyl]",Henry solubility constant Hcp,reference: Charles and Destaillats (2005),0.0088
"C=CC(C)(O)CCC=C(C)C (centres undefined) [3,7-dimethyl-1,6-octadien-3-ol]",Henry solubility constant Hcp,reference: Copolovici and Niinemets (2007),0.38
same,Henry solubility constant Hcp,reference: Leng et al. (2013),0.2
ClC1=C(Cl)C2(Cl)C3C(Cl)C(Cl)C(Cl)C3C1(Cl)C2(Cl)Cl (stereo not drawn) [trans-nonachlor],Henry solubility constant Hcp,reference: Jantunen and Bidleman (2006),0.031
"C=CC=C [1,3-butadiene]",Henry solubility constant Hcp,reference: Ross and Hudson (1957),0.00014
O=C1CCCCCCCCCCCCCCO1 [oxacyclohexadecan-2-one],Henry solubility constant Hcp,[2],0.004
CC(C)COC(=O)C(C)C [2-methylpropyl 2-methylpropanoate],Henry solubility constant Hcp,[2],0.01
[Hg] [mercury],Henry solubility constant Hcp,reference: Andersson et al. (2008),0.0013
same,Henry solubility constant Hcp,reference: Sanemasa (1975),0.0013
CC(=O)O[O] [peroxyacetyl radical],Henry solubility constant Hcp,reference: Villalta et al. (1996),< 0.00099
"CC(F)(Cl)Cl [1,1-dichloro-1-fluoroethane]",Henry solubility constant Hcp,reference: Kutsuna (2013),0.00029
same,Henry solubility constant Hcp,reference: Maaßen (1995),0.00028
"OCC(F)(F)C(F)(F)F [2,2,3,3,3-pentafluoro-1-propanol]",Henry solubility constant Hcp,reference: Chen et al. (2003),0.14
same,Henry solubility constant Hcp,reference: Rochester and Symonds (1973),0.45
CCCC(=O)SC [S-methyl butanethioate],Henry solubility constant Hcp,reference: Souchon et al. (2004),0.026
CCCCCCCCC [nonane],Henry solubility constant Hcp,reference: Jönsson et al. (1982),1.8e-06
same,Henry solubility constant Hcp,reference: Park et al. (1997),1.9e-06
CCCS [1-propanethiol],Henry solubility constant Hcp,reference: Coquelet and Richon (2005),0.0017
same,Henry solubility constant Hcp,reference: Haimi et al. (2006),0.0018
C1CN(CCOCCN2CCOCC2)CCO1 [dimorpholinodiethyl ether],Henry solubility constant Hcp,reference: Nguyen (2013),1800
"Cc1ccc(N)cc1C [3,4-dimethylbenzenamine]",Henry solubility constant Hcp,reference: Jayasinghe et al. (1992),5.3
CCC(=O)C(C)C [2-methyl-3-pentanone],Henry solubility constant Hcp,reference: Hovorka et al. (2019),0.052
"Clc1cccc(Cl)c1Cl [1,2,3-trichlorobenzene]",Henry solubility constant Hcp,[1],0.0063
CCc1nccnc1OC [2-ethyl-3-methoxypyrazine],Henry solubility constant Hcp,reference: Buttery et al. (1971),0.67
"CC(F)F [1,1-difluoroethane]",Henry solubility constant Hcp,reference: Maaßen (1995),0.0005
same,Henry solubility constant Hcp,reference: Reichl (1995),0.00049
same,Henry solubility constant Hcp,reference: Zheng et al. (1997),0.00049
FC(F)Cl [chlorodifluoromethane],Henry solubility constant Hcp,reference: Boggs and Buck (1958),0.00035
same,Henry solubility constant Hcp,reference: Chang and Criddle (1995),0.00017
same,Henry solubility constant Hcp,reference: Maaßen (1995),0.00035
same,Henry solubility constant Hcp,reference: Reichl (1995),0.00035
same,Henry solubility constant Hcp,reference: Zheng et al. (1997),0.00034
C1CCNCC1 [piperidine],Henry solubility constant Hcp,reference: Bernauer and Dohnal (2009),2.8
CC(=O)c1ccccc1 [1-phenylethanone],Henry solubility constant Hcp,reference: Allen et al. (1998),0.97
same,Henry solubility constant Hcp,reference: Betterton (1991),1.1
